In US20260356957A1, “METHODS FOR TREATMENT OF NON-SMALL CELL LUNG CANCER (NSCLC)” (Janssen Biotech, Inc., priority 2023, published 2026):

Legend:
[1] = system: EGFR-mutated locally advanced or metastatic NSCLC; assay: MARIPOSA Phase 3, progression-free survival after first subsequent therapy (PFS2); assay type: in vivo, human
Source text: The efficacy population included all patients who had undergone randomization. Tick marks indicate censoring of data. […]

[2] = system: EGFR-mutant (Ex19del/L858R) advanced NSCLC; assay: MARIPOSA Phase 3, PFS in high-risk subgroups; assay type: in vivo, human
Method: Key Eligibility Criteria: locally advanced or metastatic NSCLC, treatment-naïve for advanced disease, documented EGFR Ex19del or L858R, and ECOG PS 0 or 1. […] High-risk subgroups analyzed: liver metastases, brain metastases, TP53 co-mutation, detectable EGFRm ctDNAd at baseline, and without EGFRm ctDNAd clearance at C3D1 (Week 9) (FIG. 16). Detection of ctDNA and co-mutations were analyzed by next-generation sequencing (NGS) of blood at baseline. Detection and clearance of Ex19del and L858R ctDNA in blood were analyzed with ddPCR at baseline and C3D1.

## C=CC(=O)Nc1cc(Nc2nccc(-c3cn(C)c4ccccc34)n2)c(OC)cc1N(C)CCN(C)C [Osimertinib]
[1]; Full Analysis Set
  Censored (PFS2): 299 (60.7%) (%)
  Event (PFS2): 130 (30.3%) (%)
  PFS2 6-month event-free rate (95% CI): 0.95 (0.93, 0.97)
  PFS2 18-month event-free rate (95% CI): 0.76 (0.71, 0.80)
  PFS2 30-month event-free rate (95% CI): 0.56 (0.46, 0.66)
  PFS2 Median (95% CI): NE (29.31, NE)
  PFS2 time to event, 25th percentile (95% CI): 18.40 (15.93, 20.50) months
[1]; NE = not estimable
  PFS2 time to event, 75th percentile (95% CI): NE (NE, NE)
[2]; detectable baseline ctDNA, Biodesix ddPCR
  Median PFS: 14.8 months
[2]; wild-type TP53 at baseline
  Median PFS: 19.9 months
[2]; with TP53 co-mutations at baseline
  Median PFS: 12.9 months
[2]; with brain metastases at baseline
  Median PFS: 13.0 months
[2]; with cleared ctDNA at C3D1, Biodesix ddPCR
  Median PFS: 16.5 months
[2]; with liver metastases at baseline
  Median PFS: 11.0 months
[2]; without brain metastases at baseline
  Median PFS: 19.9 months
[2]; without cleared ctDNA at C3D1, Biodesix ddPCR
  Median PFS: 9.1 months
[2]; without detectable baseline ctDNA, Biodesix ddPCR
  Median PFS: 21.9 months
[2]; without liver metastases at baseline
  Median PFS: 18.3 months
